Test results taken from patent publication US7253191B2, “2-thio-substituted imidazole derivatives and the use thereof in the pharmaceutical industry” (Merckle GmbH, priority 2001, dated 2007).

Key:
TNF-α = assay: In vitro test of cytokine release: LPS-stimulated human whole blood / PBMCs, TNFα by ELISA; format: cell-based; details: LPS (E.coli 026:B6) stimulation 4 hours, table does not say whole blood or PBMCs
Protocol: (§1) They may be administered in one individual dose or in a plurality of doses. The activity spectrum of the compounds as inhibitors of cytokine release was examined using the test systems below, as described by C. Donat and S. Laufer in Arch. Pharm. Pharm. […] 1, 1-40, 2000.
(§2) The reaction is stopped by placing the samples on ice, adding DPBS buffer and then centrifuging at 1000*g for 15 min. The amount of IL-1β and TNFα in the plasma supernatant is then determined by ELISA.
(§3) The cells are washed twice with DPBS buffer, resuspended in macrophage SFM medium and adjusted to a cell count of 1*10^6 cells/ml.
(§4) The reaction is stopped by placing the samples on ice, adding DPBS buffer and then centrifuging at 15 880*g for 12 min. The amount of IL-1β and TNFα in the plasma supernatant is then determined by ELISA.

IL-1β = assay: In vitro test of cytokine release: LPS-stimulated human whole blood / PBMCs, IL-1β by ELISA; format: cell-based; details: LPS (E.coli 026:B6) stimulation 4 hours, table does not say whole blood or PBMCs
Protocol: as §1, §2, §3, §4

| Compound | IC50 (TNF-α; Table 1) [nM] | IC50 (IL-1β; Table 1) [nM] | also measured |
| --- | --- | --- | --- |
| CCCn1c(SCc2ccccc2)nc(-c2ccc(F)cc2)c1-c1ccncc1 [Example 28, 2-Benzylthio-4-(4-fluorophenyl)-1-n-propyl-5-(4-pyridyl)imidazole] |  |  | IC50 (TNF-α; Homo sapiens, Table 1): 29000 nM; IC50 (IL-1β; Homo sapiens, Table 1): 650 nM |
| CCCn1c(-c2ccncc2)c(-c2ccc(F)cc2)[nH]c1=S [Example 3, 4-(4-Fluorophenyl)-1-n-propyl-5-(4-pyridyl)-2-thioimidazole] | 32000 | 2400 |  |
| CS(=O)(=O)c1ccc(CSc2nc(-c3ccc(F)cc3)c(-c3ccncc3)n2-c2ccccc2)cc1 [Example 40, 4-(4-Fluorophenyl)-2-(4-methylsulfonyl)benzylthio-1-phenyl-5-(4-pyridyl)imidazole] | 3400 | 1300 |  |
| CCNc1cc(-c2c(-c3ccc(F)cc3)nc(SC)n2C)ccn1 [Example 73] |  |  | IC50 (TNF-α; Homo sapiens, Table 2): 350 nM; IC50 (IL-1β; Homo sapiens, Table 2): 50 nM |
| CSc1nc(-c2ccc(F)cc2)c(-c2ccncc2)n1CCCN1CCOCC1 [Example 24, 4-(4-Fluorophenyl)-2-methylthio-1-N-morpholinopropyl-5-(4-pyridyl)-imidazole] |  |  | IC50 (TNF-α; Homo sapiens, Table 1): 2700 nM; IC50 (IL-1β; Homo sapiens, Table 1): 1000 nM |
| CCNc1cc(-c2c(-c3ccc(F)cc3)nc(SC)n2C2CC(C)(C)NC(C)(C)C2)ccn1 [Example 75] |  |  | IC50 (TNF-α; Homo sapiens, Table 2): 2900 nM; IC50 (IL-1β; Homo sapiens, Table 2): 620 nM |
| CC(C)n1c(SCc2ccc(S(C)(=O)=O)cc2)nc(-c2ccc(F)cc2)c1-c1ccncc1 [Example 35, 4-(4-Fluorophenyl)-2-(4-methylsulfonyl)benzylthio-1-isopropyl-5-(4-pyridyl)imidazole] | 2700 | 1500 |  |
| Cn1c(SCCN2CCOCC2)nc(-c2ccc(F)cc2)c1-c1ccncc1 [Example 47] | 28000 | 1700 |  |
| CCCn1c(SCc2ccc(S(C)(=O)=O)cc2)nc(-c2ccc(F)cc2)c1-c1ccncc1 [Example 33, 4-(4-Fluorophenyl)-2-(4-methylsulfonyl)benzylthio-1-n-propyl-5-(4-pyridyl)imidazole] | 6800 | 720 |  |
| CCCn1c(SCc2ccc(C)cc2)nc(-c2ccc(F)cc2)c1-c1ccncc1 [Example 30, 4-(4-Fluorophenyl)-2-(4-methylbenzyl)thio-1-n-propyl-5-(4-pyridyl)-imidazole] |  |  | IC50 (TNF-α; Homo sapiens, Table 1): 22000 nM; IC50 (IL-1β; Homo sapiens, Table 1): 1300 nM |
| CCn1c(-c2ccncc2)c(-c2ccc(F)cc2)[nH]c1=S [Example 2, 1-Ethyl-4-(4-fluorophenyl)-5-(4-pyridyl)-2-thioimidazole] | 41000 | 1300 |  |
| CCCn1c(SCc2ccc(Cl)cc2)nc(-c2ccc(F)cc2)c1-c1ccncc1 [Example 29, 2-(4-Chlorobenzyl)thio-4-(4-fluorophenyl)-1-n-propyl-5-(4-pyridyl)-imidazole] |  |  | IC50 (TNF-α; Homo sapiens, Table 1): 62000 nM; IC50 (IL-1β; Homo sapiens, Table 1): 1300 nM |
| Fc1ccc(-c2nc(SCc3ccccc3)n(CCCN3CCOCC3)c2-c2ccncc2)cc1 [Example 43] | 5400 | 890 |  |
| 4-(4-Fluorophenyl)-2-(4-methylsulfonyl)benzylthio-1-N-morpholinoethyl-5-(4-pyridyl)imidazole [Example 44] | 12000 | 1400 |  |
| CC(C)n1c(SCc2ccc(Cl)cc2)nc(-c2ccc(F)cc2)c1-c1ccncc1 [Example 34, 2-(4-Chlorobenzyl)thio-4-(4-fluorophenyl)-1-isopropyl-5-(4-pyridyl)-imidazole] |  |  | IC50 (TNF-α; Homo sapiens, Table 1): 53000 nM; IC50 (IL-1β; Homo sapiens, Table 1): 5300 nM |
| C[S+]([O-])c1ccc(CSc2nc(-c3ccc(F)cc3)c(-c3ccncc3)n2CCN2CCOCC2)cc1 (stereo not shown) [Example 45, 4-(4-Fluorophenyl)-2-(4-methylsulfinyl)benzylthio-1-N-morpholinoethyl-5-(4-pyridyl)imidazole] | 12000 | 2400 |  |
| Fc1ccc(-c2[nH]c(=S)n(Cc3ccccc3)c2-c2ccncc2)cc1 [Example 8, 1-Benzyl-4-(4-fluorophenyl)-5-(4-pyridyl)-2-thioimidazole] | 20000 | 1000 |  |
